Laboratory results taken from the supplement of paper PMC11781733.

Legend:
Details in all cases: exposure time: 15 min to 3 h acute
[1] = system: Dugesia japonica; experiment: resting fraction in dark vs vehicle (difference in fraction x100 vs vehicle); higher = higher incidence or increase relative to vehicle control
Protocol: (§1)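 Adult asexual Dugesia japonica planarians (1 per well, 48-well plate, n=24 over technical triplicates) were exposed acutely (15 min to 3 h) to each compound (0.5% DMSO or water vehicle) and screened on a robotic platform for crawl-out, stickiness, body shape, phototaxis, noxious-heat scrunching and locomotion endpoints. Binary endpoints are incidence rate x100 normalised to in-plate vehicle controls. Continuous endpoints are the median response normalised to the plate vehicle median, as % change or difference. Negative incidences after vehicle subtraction were set to 0.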

[2] = system: Dugesia japonica; experiment: loss of heat-induced scrunching incidence (% planarians (vehicle-normalised)); higher = higher incidence or increase relative to vehicle control
Protocol: as §1

[3] = system: Dugesia japonica; experiment: any abnormal body shape incidence (% planarians (vehicle-normalised)); higher = higher incidence or increase relative to vehicle control
Protocol: as §1

[4] = system: Dugesia japonica; experiment: total locomotor bursts minus vehicle (bursts difference vs vehicle); higher = higher incidence or increase relative to vehicle control
Protocol: as §1

[5] = system: Dugesia japonica; experiment: speed second 30 s blue light vs vehicle (% change vs vehicle); higher = higher incidence or increase relative to vehicle control
Protocol: as §1

[6] = system: Dugesia japonica; experiment: speed first 30 s blue light vs vehicle (% change vs vehicle); higher = higher incidence or increase relative to vehicle control
Protocol: as §1

[7] = system: Dugesia japonica; experiment: resting fraction in blue light vs vehicle (difference in fraction x100 vs vehicle); higher = higher incidence or increase relative to vehicle control
Protocol: as §1

[8] = system: Dugesia japonica; experiment: corkscrew incidence (% planarians (vehicle-normalised)); higher = higher incidence or increase relative to vehicle control
Protocol: as §1

[9] = system: Dugesia japonica; experiment: speed in dark vs vehicle (% change vs vehicle); higher = higher incidence or increase relative to vehicle control
Protocol: as §1

[10] = system: Dugesia japonica; experiment: anxiety (time in outer well region) vs vehicle (% change vs vehicle); higher = higher incidence or increase relative to vehicle control
Protocol: as §1

[11] = system: Dugesia japonica; experiment: crawl-out incidence (% planarians); higher = higher incidence or increase relative to vehicle control
Protocol: as §1, with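 “x100.” for “x100 normalised to in-plate vehicle controls.”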

[12] = system: Dugesia japonica; experiment: stickiness incidence (% planarians (vehicle-normalised)); higher = higher incidence or increase relative to vehicle control
Protocol: as §1

[13] = system: Dugesia japonica; experiment: hyperkinesis incidence (% planarians (vehicle-normalised)); higher = higher incidence or increase relative to vehicle control
Protocol: as §1

[14] = system: Dugesia japonica; experiment: loss of phototaxis incidence (% planarians (vehicle-normalised)); higher = higher incidence or increase relative to vehicle control
Protocol: as §1

[15] = system: Dugesia japonica; experiment: contracted body shape incidence (% planarians (vehicle-normalised)); higher = higher incidence or increase relative to vehicle control
Protocol: as §1

[16] = system: Dugesia japonica; experiment: noxious heat displacement strength vs vehicle (% change vs vehicle); higher = higher incidence or increase relative to vehicle control
Protocol: as §1

[17] = system: Dugesia japonica; experiment: pharynx extrusion incidence (% planarians (vehicle-normalised)); higher = higher incidence or increase relative to vehicle control
Protocol: as §1

[18] = system: Dugesia japonica; experiment: C-shape incidence (% planarians (vehicle-normalised)); higher = higher incidence or increase relative to vehicle control
Protocol: as §1

## O=C(CCCN1CC=C(n2c(=O)[nH]c3ccccc32)CC1)c1ccc(F)cc1 [droperidol] (10 µM)
[1]
  resting fraction in dark: 68.7
[2]
  loss of heat-induced scrunching incidence: 70.8
[3]
  any abnormal body shape incidence: 70.8
[4]
  total locomotor bursts minus vehicle: 19.5
[5]
  speed second 30 s blue light: -91.1
[6]
  speed first 30 s blue light: -93.8
[7]
  resting fraction in blue light: 67.9
[8]
  corkscrew incidence: 12.5
[9]
  speed in dark: -80
[10]
  anxiety: -31.9
[11]
  crawl-out incidence: 0
[12]
  stickiness incidence: ≤ 0
[13]
  hyperkinesis incidence: 25
[14]
  loss of phototaxis incidence: 54.2
[15]
  contracted body shape incidence: 29.2
[16]
  noxious heat displacement strength: -23.3
[17]
  pharynx extrusion incidence: 0
[18]
  C-shape incidence: 20.8

## O=C(CCCN1CC=C(n2c(=O)[nH]c3ccccc32)CC1)c1ccc(F)cc1 [droperidol] (31.6 µM)
[1]
  resting fraction in dark: 86.7
[2]
  loss of heat-induced scrunching incidence: 75
[3]
  any abnormal body shape incidence: 95.8
[4]
  total locomotor bursts minus vehicle: 12.2
[5]
  speed second 30 s blue light: -94.3
[6]
  speed first 30 s blue light: -94.6
[7]
  resting fraction in blue light: 85.4
[8]
  corkscrew incidence: 4.17
[9]
  speed in dark: -81.9
[10]
  anxiety: -26.3
[11]
  crawl-out incidence: 0
[12]
  stickiness incidence: 12.5
[13]
  hyperkinesis incidence: 25
[14]
  loss of phototaxis incidence: 58.3
[15]
  contracted body shape incidence: 70.8
[16]
  noxious heat displacement strength: -34
[17]
  pharynx extrusion incidence: 0
[18]
  C-shape incidence: 29.2

## O=C(CCCN1CC=C(n2c(=O)[nH]c3ccccc32)CC1)c1ccc(F)cc1 [droperidol] (100 µM)
[1]
  resting fraction in dark: 74.8
[2]
  loss of heat-induced scrunching incidence: 73.9
[3]
  any abnormal body shape incidence: 100
[4]
  total locomotor bursts minus vehicle: 30
[5]
  speed second 30 s blue light: -96.2
[6]
  speed first 30 s blue light: -94.2
[7]
  resting fraction in blue light: 93.1
[8]
  corkscrew incidence: 0
[9]
  speed in dark: -79.8
[10]
  anxiety: -37
[11]
  crawl-out incidence: 4.17
[12]
  stickiness incidence: 13
[13]
  hyperkinesis incidence: 0
[14]
  loss of phototaxis incidence: 60.9
[15]
  contracted body shape incidence: 100
[16]
  noxious heat displacement strength: -26.6
[17]
  pharynx extrusion incidence: 0
[18]
  C-shape incidence: 4.35

## CN(C)CCC[C@@]1(c2ccc(F)cc2)OCc2cc(C#N)ccc21 [escitalopram] (31.6 µM)
[1]
  resting fraction in dark: -4.32
[2]
  loss of heat-induced scrunching incidence: 37.5
[3]
  any abnormal body shape incidence: 0
[4]
  total locomotor bursts minus vehicle: -1.25
[5]
  speed second 30 s blue light: 4.85
[6]
  speed first 30 s blue light: 12.5
[7]
  resting fraction in blue light: 0
[8]
  corkscrew incidence: 0
[9]
  speed in dark: -4.33
[10]
  anxiety: 3.28
[11]
  crawl-out incidence: 0
[12]
  stickiness incidence: 8.33
[13]
  hyperkinesis incidence: 0
[14]
  loss of phototaxis incidence: 4.17
[15]
  contracted body shape incidence: 4.17
[16]
  noxious heat displacement strength: -31.5
[17]
  pharynx extrusion incidence: 0
[18]
  C-shape incidence: 0

## CN(C)CCC[C@@]1(c2ccc(F)cc2)OCc2cc(C#N)ccc21 [escitalopram] (100 µM)
[1]
  resting fraction in dark: -4.57
[2]
  loss of heat-induced scrunching incidence: 25
[3]
  any abnormal body shape incidence: 0
[4]
  total locomotor bursts minus vehicle: 1.75
[5]
  speed second 30 s blue light: -2.15
[6]
  speed first 30 s blue light: -13.7
[7]
  resting fraction in blue light: -0.46
[8]
  corkscrew incidence: 0
[9]
  speed in dark: -3.87
[10]
  anxiety: 1.47
[11]
  crawl-out incidence: 0
[12]
  stickiness incidence: ≤ 0
[13]
  hyperkinesis incidence: 0
[14]
  loss of phototaxis incidence: 16.7
[15]
  contracted body shape incidence: 0
[16]
  noxious heat displacement strength: -34
[17]
  pharynx extrusion incidence: 0
[18]
  C-shape incidence: 0

## CN(C)CCC[C@@]1(c2ccc(F)cc2)OCc2cc(C#N)ccc21 [escitalopram] (316 µM)
[1]
  resting fraction in dark: -1.78
[2]
  loss of heat-induced scrunching incidence: 25
[3]
  any abnormal body shape incidence: 50
[4]
  total locomotor bursts minus vehicle: 16
[5]
  speed second 30 s blue light: -35.5
[6]
  speed first 30 s blue light: -31.5
[7]
  resting fraction in blue light: -0.69
[8]
  corkscrew incidence: 0
[9]
  speed in dark: -24.6
[10]
  anxiety: 1.26
[11]
  crawl-out incidence: 0
[12]
  stickiness incidence: ≤ 0
[13]
  hyperkinesis incidence: 50
[14]
  loss of phototaxis incidence: ≤ 0
[15]
  contracted body shape incidence: 0
[16]
  noxious heat displacement strength: -39.8
[17]
  pharynx extrusion incidence: 0
[18]
  C-shape incidence: 0

## CN(C)CCC[C@@]1(c2ccc(F)cc2)OCc2cc(C#N)ccc21 [escitalopram] (1000 µM)
[1]
  resting fraction in dark: 17.6
[2]
  loss of heat-induced scrunching incidence: 60.9
[3]
  any abnormal body shape incidence: 69.6
[4]
  total locomotor bursts minus vehicle: 37.8
[5]
  speed second 30 s blue light: -66.8
[6]
  speed first 30 s blue light: -68.2
[7]
  resting fraction in blue light: 18.9
[8]
  corkscrew incidence: 26.1
[9]
  speed in dark: -42.1
[10]
  anxiety: 19.7
[11]
  crawl-out incidence: 4.17
[12]
  stickiness incidence: 30.4
[13]
  hyperkinesis incidence: 56.5
[14]
  loss of phototaxis incidence: 8.7
[15]
  contracted body shape incidence: 4.35
[16]
  noxious heat displacement strength: -59
[17]
  pharynx extrusion incidence: 0
[18]
  C-shape incidence: 0

## CN1CC(=O)N=C1NC(=O)Nc1cccc(Cl)c1 [fenobam] (100 µM)
[1]
  resting fraction in dark: 0
[2]
  loss of heat-induced scrunching incidence: 8.33
[3]
  any abnormal body shape incidence: 0
[4]
  total locomotor bursts minus vehicle: 2
[5]
  speed second 30 s blue light: -27
[6]
  speed first 30 s blue light: -26.8
[7]
  resting fraction in blue light: 0.38
[8]
  corkscrew incidence: 0
[9]
  speed in dark: -18.5
[10]
  anxiety: -2.96
[11]
  crawl-out incidence: 0
[12]
  stickiness incidence: ≤ 0
[13]
  hyperkinesis incidence: 0
[14]
  loss of phototaxis incidence: ≤ 0
[15]
  contracted body shape incidence: 0
[16]
  noxious heat displacement strength: -43
[17]
  pharynx extrusion incidence: 0
[18]
  C-shape incidence: 0
